This is an account of results in PMC5103216, “Novel Agonist Bioisosteres and Common Structure-Activity Relationships for The Orphan G Protein-Coupled Receptor GPR139” (Scientific Reports, 2016).

Holding throughout (assay type): cell-based
Assay [1] deals with T1, GPR139 (Homo sapiens, UniProt Q6DWJ6).
T1 sequence (Q6DWJ6 1-353): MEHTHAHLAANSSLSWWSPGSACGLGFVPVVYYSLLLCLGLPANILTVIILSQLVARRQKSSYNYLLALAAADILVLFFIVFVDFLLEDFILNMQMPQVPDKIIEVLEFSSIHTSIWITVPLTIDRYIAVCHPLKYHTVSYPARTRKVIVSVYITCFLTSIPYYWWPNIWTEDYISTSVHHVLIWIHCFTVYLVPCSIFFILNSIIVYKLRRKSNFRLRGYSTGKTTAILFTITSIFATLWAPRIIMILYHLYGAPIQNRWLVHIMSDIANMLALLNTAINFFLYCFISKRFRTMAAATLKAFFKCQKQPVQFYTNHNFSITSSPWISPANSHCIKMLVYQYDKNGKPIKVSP
The assay is described as follows: cAMP dynamic 2 assay measuring Gi activation (forskolin) in CHO-139. The note with it: CHO-139. How it is done:
The cAMP assay was performed as described in the work by Thomsen et al.[28] with few modifications. Breifly, CHO-139 and CHO-M1 was detached and resuspended to a concentration of 1 million cells/mL. 5 μL 2x concentrated compound (for Gs: +100 μM IBMX and for Gi: +100 μM IBMX +10 μM forskolin (Fsk)) and 5 μL cell suspension (5,000 cells/well) was mixed. The plate was sealed and incubated at room temperature for 30 min. Next, 10 μL detection reagents (lysis buffer containing 2.5% Eu^3+-anti-cAMP antibody and 2.5% cAMP-d2) was added and the plate was incubated for 1 hour at room temperature. The plate was read on an Envision (PerkinElmer, Waltham, MA, USA). The TR-FRET 665 nm/615 nm ratio, which is inversely proportional with the cAMP production, was used to determination the concentration of the cAMP response. […]
Supplementary Figure 2. cAMP dynamic 2 assay measuring Gi activation. 5,000 cells/well of CHO-139 (pink bars) or CHO-M1 (blue bars) cells are
incubated with the indicated compounds for 30 min at room temperature in the presence of 50 µM IBMX and 5 uM Fsk (expect “buffer (-Fsk) where only 50
µM IBMX is present). The straight line indicate the level of cAMP upon activation with 5 uM Fsk, and the grey area ±10% of the response. The responses are
one representative out of at two independent experiments performed in triplicates. Data points are means ± SD.

Assay [2] deals with T1, GPR139. The assay is described as follows: IP-One HTRF assay measuring Gq activation in CHO-139. The note with it: IP-One HTRF assay, CHO-139, 20 mM LiCl. How it is done:
(§1) Figure 3 IP-One HTRF® assay measuring Gq activation. Concentration-response curves of 1a, 7c (racemic), L-Trp, L-Phe, DL43, DL126, DL24, DL22, DL132 and DL130 on (A) CHO-139 and (B) CHO-M1 in the IP-One assay (final conc of LiCl = 20 mM). The dotted line represent the [IP1] response from (A) 10 μM 1a and (B) 1 μM carbachol, which is an agonist for the muscarinic acethylcholine receptor M1 that activates the Gq coupled pathway. The graphs are means ± SEM based on three independent experiments performed in triplicates.
(§2) The IP-One assay was performed as described in the work by Thomsen et al.[28], with few modifications. Breifly, CHO-139 and CHO-M1 were detached and re-suspended to a concentration of 10 million cells/mL. 5 μL 2x concentrated compound (+40 mM LiCl) and 5 μL cell suspension (50,000 cells/well) was mixed. The plate was sealed and incubated at 37 °C for 1 hour. Next, 10 μL detection reagents (lysis buffer containing 2.5% Eu^3+-anti-IP1 antibody and 2.5% IP1-d2) was added and the plate was incubated for 1 hour at room temperature. The plate was read on an Envision (PerkinElmer, Waltham, MA, USA). The time resolved-fluorescence resonance energy transfer (TR-FRET) 665 nm/615 nm ratio, which is inversely proportional to the inositol monophosphate (IP1) accumulation, was used to determine the concentration of the IP1 response.

For a further assay, the target named is T2, M1 receptor (Homo sapiens, UniProt P11229).
T2 construct: host or cells: CHO-k1
T2 sequence (P11229 1-460): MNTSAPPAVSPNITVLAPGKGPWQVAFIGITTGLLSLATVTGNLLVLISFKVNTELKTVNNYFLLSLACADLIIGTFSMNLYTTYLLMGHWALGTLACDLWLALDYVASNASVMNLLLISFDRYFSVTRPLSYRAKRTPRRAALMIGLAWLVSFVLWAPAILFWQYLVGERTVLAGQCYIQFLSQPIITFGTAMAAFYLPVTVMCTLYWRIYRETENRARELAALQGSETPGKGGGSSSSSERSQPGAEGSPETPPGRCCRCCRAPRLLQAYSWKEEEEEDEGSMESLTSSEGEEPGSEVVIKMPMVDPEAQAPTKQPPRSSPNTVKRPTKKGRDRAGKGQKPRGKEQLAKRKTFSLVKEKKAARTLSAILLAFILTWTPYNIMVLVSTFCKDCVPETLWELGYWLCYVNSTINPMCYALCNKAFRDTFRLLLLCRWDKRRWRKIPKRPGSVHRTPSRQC
The assay is described as follows: IP-One HTRF assay in CHO-M1 (control). How it is done:
as §1, §2
(In TR-FRET formats the signal depends on donor and acceptor labels being close together.)

Turning to `O=C(CN1CCCc2ccccc21)NNC(=O)c1ccc2c(c1)OCO2` [DL22], the “Inhibition of the cAMP response induced by 5 μM forskolin (Gi), in words” value (“Inhibition of the cAMP response induced” below) on GPR139 [1] is on record as “none of the tested compounds were able to inhibit the cAMP response”. Also, at GPR139 [2], the EC50 (usually the concentration needed to bring the measured effect to its halfway point) came out at 4.18 µM. Further, at M1 receptor, the “IP1 response in CHO-M1 cells” value is given as “no response is seen in CHO-M1 cells”.
Take `COc1cc(OC)cc(C(=O)NNC(=O)C2CCCc3ccccc32)c1` (stereo not drawn) [DL24]: on GPR139 [1], the “Inhibition of the cAMP response induced” value is on record as “none of the tested compounds were able to inhibit the cAMP response”. The compound further gave an EC50 at GPR139 [2] of 0.75 µM. In addition, the “IP1 response in CHO-M1 cells” value on M1 receptor was “no response is seen in CHO-M1 cells”.
Take `CCn1c(C)nc2cc(C(=O)NNC(=O)Cc3cccc4ccccc34)ccc21` [DL43]: the “Inhibition of the cAMP response induced” value at GPR139 [1] is “none of the tested compounds were able to inhibit the cAMP response”. The EC50 at GPR139 [2] came to 9.57 µM. On M1 receptor, the “IP1 response in CHO-M1 cells” value is on record as “no response is seen in CHO-M1 cells”.
Take `O=C(Cc1cccc2ccccc12)NNC(=O)c1ccc2c(c1)OCO2` [DL126]: the “Inhibition of the cAMP response induced” value on GPR139 [1] is on record as “none of the tested compounds were able to inhibit the cAMP response”. In addition, on GPR139 [2], the EC50 was 5.62 µM. In addition, the “IP1 response in CHO-M1 cells” value on M1 receptor is “no response is seen in CHO-M1 cells”.
As to `O=C(CNC(=O)c1ccc2c(c1)OCO2)NC1CCSc2ccc(F)cc21` (stereo not drawn) [DL130], the “Inhibition of the cAMP response induced” value at GPR139 [1] is reported as “none of the tested compounds were able to inhibit the cAMP response”. This compound also returned an EC50 on GPR139 [2] of 4.98 µM. In addition, on M1 receptor, the “IP1 response in CHO-M1 cells” value was “no response is seen in CHO-M1 cells”.
For `O=C(NCC(=O)N1CCCC1c1ccccc1)c1ccc2c(c1)OCO2` (stereo not drawn) [DL132], in that order: “none of the tested compounds were able to inhibit the cAMP response”, 4.16 µM and “no response is seen in CHO-M1 cells”.
